Reference: patent US9353107B2 (Aurigene Discovery Technologies Limited, priority 2012, dated 2016)
Where a name gives a salt, the structure may show the parent alone.

Target: T1, recombinant human ALK enzyme (ALK WT) (Homo sapiens, UniProt Q9UM73)
T1 construct: purchased Carna Biosciences 08-518
Assay: ALK WT cell free enzymatic assay (TR-FRET)
Assay type: biochemical
Settings: 1 μM ATP; for IC50: 10 point dose response; for inhibition at 0.1 µM: compound at 100 nM; for inhibition at 0.1 µM / inhibition at 1 µM: 30 min pre-incubation; for inhibition at 1 µM: compound at 1 μM
How it was run: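 Read-out is TR-FRET (665 nm/615 nm ratio) using an Eu-labeled anti-phosphotyrosine antibody. Compound is pre-incubated 30 min with recombinant human ALK, then reacted 30 min with 1 μM ATP and 40 nM Poly GT substrate. Values are percent inhibition at 100 nM and 1 μM, plus IC50 from 10-point variable-slope regression.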

T1 sequence (Q9UM73 1058-1620 limits assumed): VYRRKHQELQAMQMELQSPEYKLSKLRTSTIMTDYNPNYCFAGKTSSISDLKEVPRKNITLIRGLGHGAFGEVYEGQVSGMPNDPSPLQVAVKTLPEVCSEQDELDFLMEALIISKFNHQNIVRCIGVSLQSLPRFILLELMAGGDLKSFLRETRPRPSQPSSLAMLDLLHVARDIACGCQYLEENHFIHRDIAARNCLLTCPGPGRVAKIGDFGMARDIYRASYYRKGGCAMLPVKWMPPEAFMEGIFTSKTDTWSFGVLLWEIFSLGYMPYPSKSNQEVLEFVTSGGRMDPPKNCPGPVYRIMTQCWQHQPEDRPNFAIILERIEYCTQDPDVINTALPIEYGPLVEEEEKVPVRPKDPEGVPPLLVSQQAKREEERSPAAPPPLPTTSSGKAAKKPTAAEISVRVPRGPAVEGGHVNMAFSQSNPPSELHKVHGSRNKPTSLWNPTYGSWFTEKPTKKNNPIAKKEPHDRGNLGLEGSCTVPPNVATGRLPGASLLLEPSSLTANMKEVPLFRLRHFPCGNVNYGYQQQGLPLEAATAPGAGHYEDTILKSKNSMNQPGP

NC(=O)CN1CCN(c2ccc(-c3cnc4[nH]cc(-c5cnn(Cc6cccc(F)c6)c5)c4c3)cc2)CC1 [Example 103, 2-(4-(4-(3-(1-(3-fluorobenzyl)-1H-pyrazol-4-yl)-1H-pyrrolo[2,3-b]pyridin-5-yl)phenyl)piperazin-1-yl)acetamide]
IC50: < 50 nM | inhibition at 0.1 µM: 95% | inhibition at 1 µM: 100%

Cc1nn(Cc2cccc(F)c2)c(C)c1-c1c[nH]c2ncc(-c3ccc(OCCN(C)C)c(NS(C)(=O)=O)c3)cc12 [Example 23, N-(2-(2-(dimethylamino)ethoxy)-5-(3-(1-(3-fluorobenzyl)-3,5-dimethyl-1H-pyrazol-4-yl)-1H-pyrrolo[2,3-b]pyridin-5-yl)phenyl)methanesulfonamide]
IC50: 50 to 250 nM | inhibition at 0.1 µM: 73% | inhibition at 1 µM: 99%

Fc1cccc(Cn2cc(-c3c[nH]c4ncc(-c5ccc(C6CCNCC6)cc5)cc34)cn2)c1 [Example 82, 3-(1-(3-fluorobenzyl)-1H-pyrazol-4-yl)-5-(4-(piperidin-4-yl)phenyl)-1H-pyrrolo[2,3-b]pyridine]
IC50: < 50 nM | inhibition at 0.1 µM: 99% | inhibition at 1 µM: 100%

Cc1c(-c2c[nH]c3ncc(-c4ccc(C5CCNCC5)c(F)c4)cc23)cnn1Cc1cccc(F)c1 [Example 165, 5-(3-fluoro-4-(piperidin-4-yl)phenyl)-3-(1-(3-fluorobenzyl)-5-methyl-1H-pyrazol-4-yl)-1H-pyrrolo[2,3-b]pyridine]
IC50: < 50 nM | inhibition at 0.1 µM: 99% | inhibition at 1 µM: 100%

CS(=O)(=O)N1CCN(c2ccc(-c3cnc4[nH]cc(-c5cnn(Cc6cccc(F)c6)c5)c4c3)cc2)CC1 [Example 125, 3-(1-(3-fluorobenzyl)-1H-pyrazol-4-yl)-5-(4-(4-(methylsulfonyl)piperazin-1-yl)phenyl)-1H-pyrrolo[2,3-b]pyridine]
IC50: < 50 nM | inhibition at 0.1 µM: 86% | inhibition at 1 µM: 97%

COc1cc(-c2cnc3[nH]cc(-c4c(C)nn(Cc5cccc(F)c5)c4C)c3c2)cnc1N [Example 178, 5-(3-(1-(3-fluorobenzyl)-3,5-dimethyl-1H-pyrazol-4-yl)-1H-pyrrolo[2,3-b]pyridin-5-yl)-3-methoxypyridin-2-amine]
IC50: < 50 nM | inhibition at 0.1 µM: 94% | inhibition at 1 µM: 100%

CS(=O)(=O)Nc1cccc(-c2cnc3[nH]cc(-c4cnn(Cc5cc(F)ccc5F)c4)c3c2)c1 [Example 4, N-(3-(3-(1-(2,5-difluorobenzyl)-1H-pyrazol-4-yl)-1H-pyrrolo[2,3-b]pyridin-5-yl)phenyl)methane sulfonamide]
IC50: 50 to 250 nM | inhibition at 1 µM: 95%

Cc1nn(Cc2cccc(F)c2)c(C)c1-c1c[nH]c2ncc(-c3cccc(CC4CCNCC4)c3)cc12 [Example 99, 3-(1-(3-fluorobenzyl)-3,5-dimethyl-1H-pyrazol-4-yl)-5-(3-(piperidin-4-ylmethyl)phenyl)-1H-pyrrolo[2,3-b]pyridine]
IC50: < 50 nM | inhibition at 0.1 µM: 89% | inhibition at 1 µM: 99%

Fc1cccc(Cn2cc(-c3c[nH]c4ncc(-c5ccc(C6CCNCC6)nc5)cc34)cn2)c1 [Example 159, 3-(1-(3-fluorobenzyl)-1H-pyrazol-4-yl)-5-(6-(piperidin-4-yl)pyridin-3-yl)-1H-pyrrolo[2,3-b]pyridine]
IC50: < 50 nM | inhibition at 0.1 µM: 91% | inhibition at 1 µM: 100%

N#CCN1CCN(c2ccc(-c3cnc4[nH]cc(-c5cnn(Cc6cccc(F)c6)c5)c4c3)cn2)CC1 [Example 150, 2-(4-(5-(3-(1-(3-fluorobenzyl)-1H-pyrazol-4-yl)-1H-pyrrolo[2,3-b]pyridin-5-yl)pyridin-2-yl)piperazin-1-yl)acetonitrile]
IC50: < 50 nM | inhibition at 0.1 µM: 92% | inhibition at 1 µM: 100%

Fc1cccc(Cn2cc(-c3c[nH]c4ncc(-c5ccc(N6CCNCC6)c(F)c5)cc34)cn2)c1 [Example 172, 5-(3-fluoro-4-(piperazin-1-yl)phenyl)-3-(1-(3-fluorobenzyl)-1H-pyrazol-4-yl)-1H-pyrrolo[2,3-b]pyridine]
IC50: < 50 nM | inhibition at 0.1 µM: 99% | inhibition at 1 µM: 100%

C[C@H](O)CN1CCN(c2cnc(-c3cnc4[nH]cc(-c5cnn(Cc6cccc(F)c6)c5)c4c3)cn2)CC1 [Example 163, (S)-1-(4-(5-(3-(1-(3-fluorobenzyl)-1H-pyrazol-4-yl)-1H-pyrrolo[2,3-b]pyridin-5-yl)pyrazin-2-yl)piperazin-1-yl)propan-2-ol]
IC50: < 50 nM | inhibition at 0.1 µM: 88% | inhibition at 1 µM: 98%

CS(=O)(=O)Nc1cc(-c2cnc3[nH]cc(-c4cnn(Cc5cccc(F)c5)c4)c3c2)ccc1N1CCOCC1 [Example 17, N-(5-(3-(1-(3-fluorobenzyl)-1H-pyrazol-4-yl)-1H-pyrrolo[2,3-b]pyridin-5-yl)-2-morpholinophenyl)methanesulfonamide]
inhibition at 0.1 µM: 13% | inhibition at 1 µM: 53%

COc1ccc(-c2cnc3[nH]cc(-c4cnn(Cc5cccc(F)c5)c4)c3c2)cc1NS(=O)(=O)C1CC1 [Example 16, N-(5-(3-(1-(3-fluorobenzyl)-1H-pyrazol-4-yl)-1H-pyrrolo[2,3-b]pyridin-5-yl)-2-methoxyphenyl)cyclopropanesulfonamide]
inhibition at 0.1 µM: 33% | inhibition at 1 µM: 66%

COc1cc(-c2cnc3[nH]cc(-c4c(C)nn(Cc5cccc(F)c5)c4C)c3c2)ccc1N1CCNCC1 [Example 62, 3-(1-(3-fluorobenzyl)-3,5-dimethyl-1H-pyrazol-4-yl)-5-(3-methoxy-4-(piperazin-1-yl)phenyl)-1H-pyrrolo[2,3-b]pyridine hydrochloride]
IC50: < 50 nM | inhibition at 0.1 µM: 87% | inhibition at 1 µM: 100%

Fc1cccc(Cn2cc(-c3c[nH]c4ncc(-c5cnc(N6CCNCC6)c(F)c5)cc34)cn2)c1 [Example 173, 5-(5-fluoro-6-(piperazin-1-yl)pyridin-3-yl)-3-(1-(3-fluorobenzyl)-1H-pyrazol-4-yl)-1H-pyrrolo[2,3-b]pyridine]
IC50: < 50 nM | inhibition at 0.1 µM: 92% | inhibition at 1 µM: 98%

Fc1cccc(Cn2cc(-c3c[nH]c4ncc(-c5ccc(C6CCNCC6)c(F)c5)cc34)cn2)c1 [Example 84, 5-(3-fluoro-4-(piperidin-4-yl)phenyl)-3-(1-(3-fluorobenzyl)-1H-pyrazol-4-yl)-1H-pyrrolo[2,3-b]pyridine]
IC50: < 50 nM | inhibition at 0.1 µM: 98% | inhibition at 1 µM: 100%

CS(=O)(=O)Nc1cccc(-c2cnc3[nH]cc(-c4cnn(Cc5ccccc5)c4)c3c2)c1 [Example 12, N-(3-(3-(1-benzyl-1H-pyrazol-4-yl)-1H-pyrrolo[2,3-b]pyridin-5-yl)phenyl) methanesulfonamide]
IC50: > 250 nM | inhibition at 1 µM: 87%

CS(=O)(=O)Nc1cc(-c2cnc3[nH]cc(-c4cnn(CCc5ccccc5)c4)c3c2)ccc1N1CCNCC1 [Example 107, N-(5-(3-(1-phenethyl-1H-pyrazol-4-yl)-1H-pyrrolo[2,3-b]pyridin-5-yl)-2-(piperazin-1-yl)phenyl) methanesulfonamide hydrochloride]
IC50: < 50 nM | inhibition at 0.1 µM: 99% | inhibition at 1 µM: 100%

Cc1c(-c2c[nH]c3ncc(-c4ccc(N5CCN(C[C@H](C)O)CC5)cc4)cc23)cnn1Cc1cccc(F)c1 [Example 129, (S)-1-(4-(4-(3-(1-(3-fluorobenzyl)-5-methyl-1H-pyrazol-4-yl)-1H-pyrrolo[2,3-b]pyridin-5-yl)phenyl)piperazin-1-yl)propan-2-ol]
IC50: < 50 nM | inhibition at 0.1 µM: 96% | inhibition at 1 µM: 99%

CN(C)CC(=O)N1CCN(c2ccc(-c3cnc4[nH]cc(-c5cnn(Cc6cccc(F)c6)c5)c4c3)cn2)CC1 [Example 147, 2-(dimethylamino)-1-(4-(5-(3-(1-(3-fluorobenzyl)-1H-pyrazol-4-yl)-1H-pyrrolo[2,3-b]pyridin-5-yl)pyridin-2-yl)piperazin-1-yl)ethanone]
IC50: < 50 nM | inhibition at 0.1 µM: 99% | inhibition at 1 µM: 100%

COc1cc(-c2cnc3[nH]cc(-c4cnn(Cc5cccc(F)c5)c4)c3c2)cnc1N [Example 81, 5-(3-(1-(3-fluorobenzyl)-1H-pyrazol-4-yl)-1H-pyrrolo[2,3-b]pyridin-5-yl)-3-methoxypyridin-2-amine]
IC50: < 50 nM | inhibition at 0.1 µM: 94% | inhibition at 1 µM: 96%

CCS(=O)(=O)N1CCN(c2ccc(-c3cnc4[nH]cc(-c5cnn(Cc6cccc(F)c6)c5)c4c3)cn2)CC1 [Example 156, 5-(6-(4-(ethylsulfonyl)piperazin-1-yl)pyridin-3-yl)-3-(1-(3-fluorobenzyl)-1H-pyrazol-4-yl)-1H-pyrrolo[2,3-b]pyridine]
IC50: < 50 nM | inhibition at 0.1 µM: 69% | inhibition at 1 µM: 91%

c1ccc(CCn2cc(-c3c[nH]c4ncc(-c5ccc(N6CCNCC6)nc5)cc34)cn2)cc1 [Example 140, 3-(1-phenethyl-1H-pyrazol-4-yl)-5-(6-(piperazin-1-yl)pyridin-3-yl)-1H-pyrrolo[2,3-b]pyridine]
IC50: < 50 nM | inhibition at 0.1 µM: 80% | inhibition at 1 µM: 95%

Fc1cccc(Cn2cc(-c3c[nH]c4ncc(-c5ccc(N6CCNCC6)cc5)cc34)cn2)c1 [Example 39, 3-(1-(3-fluorobenzyl)-1H-pyrazol-4-yl)-5-(4-(piperazin-1-yl)phenyl)-1H-pyrrolo[2,3-b]pyridine hydrochloride]
IC50: < 50 nM | inhibition at 0.1 µM: 92% | inhibition at 1 µM: 99%

O=C(C1CC1)N1CCN(c2ccc(-c3cnc4[nH]cc(-c5cnn(Cc6cccc(F)c6)c5)c4c3)cn2)CC1 [Example 157, Cyclopropyl(4-(5-(3-(1-(3-fluorobenzyl)-1H-pyrazol-4-yl)-1H-pyrrolo[2,3-b]pyridin-5-yl)pyridin-2-yl)piperazin-1-yl)methanone]
IC50: < 50 nM | inhibition at 0.1 µM: 77% | inhibition at 1 µM: 93%
